Results reported in article PMC9783881, “Synthesis and Preclinical Evaluation of Small-Molecule Prostate-Specific Membrane Antigen-Targeted Abiraterone Conjugate” (Molecules, 2022).
Entries after “also recorded” stand apart in the source; their conditions may differ. Where two headings read alike, the source gives them in different places.

Legend:
cytochrome P450 3A4 = target: T1, cytochrome P450 3A4 (Homo sapiens, UniProt P08684); assay: Cytochrome inhibition in human liver microsomes, 3A4; assay type: in vitro ADME
T1 construct: isoenzyme activity in human liver microsomes using conventional sample substrates and HPLC-MS/MS detection; from tissue; host or cells: human liver microsomes
Description: (§1) To assess the effect of drugs on liver cytochrome activity in drug development, test systems with recombinant enzymes and fluorescent substrates as well as microsomes with metabolic substrates and HPLC-MS/MS analysis were used. The present study aimed to investigate the effect of targeted delivery drugs specific to malignant prostate cells on cytochrome P450 (CYP450) isoenzyme activity in human liver microsomes using conventional sample substrates and HPLC-MS/MS detection. Detailed methodological parameters are described in the Supplementary Material.

Acute toxicity in mice = assay type: in vivo
Protocol: White, outbred male mice (ICR) about 2 months old weighing 19–21 g were used. Conjugate PSMA-Abi (2000 mg/kg) was formulated with 1% starch gel solution. The mixture was administrated intragastrically in an amount not exceeding 0.5 mL, and in portions if necessary. The control group was administered 1% starch gel solution. Animals were kept under controlled environmental conditions: air temperature 20–26 °C and relative humidity 30–70%. Lighting in the rooms was artificial (a cycle of 12 h of light, 12 h of darkness). Before the start of the study, animals were divided into groups of 10 animals per group. The distribution was made such that the average masses of groups of animals of one species differed by no more than 10%. Before the experiment concerning the determination of acute toxicity, the animals were deprived of food and water (mice for 2 h) and then weighed. The duration of observation of laboratory animals was 14 days. During this period, visible signs of intoxication were evaluated. Dose selection was carried out based on 22Rv1 xenograft experiments with the maximum effective dose for mice of 500 mg/kg.

Pharmacokinetics in rats = assay type: in vivo
Protocol: The pharmacokinetic parameters were studied for healthy, outbred, adult, male, albino rats (Wistar) about 3 months old weighing 190–210 g. The experiment included 3 rats for preparation. The formulation of conjugate PSMA-Abi was the same as for the acute toxicity evaluation. Administration dose was 1000 mg/kg.
Blood samples were taken from the tail vein of rats in a volume of 0.2 mL in polyethylene micro-tubes with a capillary up to 0.5 mL by trimming the tip of the tail. K2EDTA was used as an anticoagulant. During the study, a total of 48 blood samples from 3 animals (16 samples from each animal) were selected for PSMA-Abi.
Immediately after taking a blood sample, the tube was carefully inverted several times to mix the contents (anticoagulant). The plasma was then separated by centrifugation at 1500× g for 10 min at a temperature of +4 °C. Centrifugation was performed no later than 15 min after sampling each blood sample. The studied conjugate PSMA-Abi was determined in the blood plasma samples of rats and rabbits by high-performance liquid chromatography (Agilent 1200) with tandem mass spectrometric detection (QTrap 4500 tandem mass spectrometer) with preliminary isolation of the analyte from the biomaterial. Detailed method parameters are described in Table S6.

22Rv1 cells = assay: Cell cycle analysis; assay type: cell-based, human
Protocol: Cell cycle was analyzed in 22Rv1 cells fixed in 70% ethanol with Muse® cell cycle kit. The fixation lasted overnight at −20 °C. Then, cells were collected by centrifugation at 4000 rpm for 10 min and washed with PBS. The cells were resuspended with Muse® Cell Cycle reagent and incubated for 30 min at room temperature in the dark; then, they were counted.

cytochrome P450 2D6 = target: T2, cytochrome P450 2D6 (Homo sapiens, UniProt P10635); assay: Cytochrome inhibition in human liver microsomes, 2D6; assay type: in vitro ADME; conditions: substrate Dextromethorphan, read-out: IC50, 2D6 (PSMA-Abi)
T2 construct: isoenzyme activity in human liver microsomes using conventional sample substrates and HPLC-MS/MS detection; from tissue; host or cells: human liver microsomes
Description: as §1

[1] = tested on: 22Rv1 prostate cancer subcutaneous xenograft; assay: 22Rv1 human tumor xenograft mouse model; assay type: in vivo, Balb/c nude mice; conditions: 22Rv1 xenografts
Protocol: Male, 6–8 week old Balb/c nude mice with body weight range of 20–22 g were purchased from N.N.Blokhin Cancer Research Center. Animals were kept in plastic cages equipped with lids with feeding recesses, air filters, and feed dividers at 2–3 mice per cage.
Mice were injected subcutaneously in the right and left flanks with 1 × 10^7 22Rv1 cells in RPMI-1640 medium 0.2 mL supplemented with 0.2 mL Corning Matrigel® matrix (Corning, NY, USA) in a total volume of 400 μL. When the average size of the tumors reached ~100 mm^3, mice were randomly divided into three groups, with five mice per group, including a vehicle group (1% starch paste) and two treatment groups: PSMA-Abi 500 mg/kg/day and AbiAc 200 mg/kg/day for 14 days. The drugs were administered orally, and all compounds were formulated with 1% starch paste. Following the treatment, the primary tumor size was measured twice weekly with a micro-caliper, and the tumor volume was calculated using the formula: Volume = π/6 × length × width × height. Treatment outcome was based on percentage of tumor growth inhibition (%TGI), defined as the percent difference between the median tumor volumes (MTVs) of mice in the treated and control groups. Percent TGI was calculated using the following formula: %TGI = [1 − (MTV treatment group/MTV control)] 100%. All data are presented as means ± SD. Statistical analyses of in vivo research were performed using SPSS Statistics V. 22.0, comparing continuous variables by non-parametrical Mann–Whitney U. * p ≤ 0.05 was considered as significant in comparison with the control.

cytochrome P450 2C19 = target: T3, cytochrome P450 2C19 (Homo sapiens, UniProt P33261); assay: Cytochrome inhibition in human liver microsomes, 2C19; assay type: in vitro ADME; conditions: substrate Mephenytoin, read-out: IC50, 2C19 (PSMA-Abi)
T3 construct: isoenzyme activity in human liver microsomes using conventional sample substrates and HPLC-MS/MS detection; from tissue; host or cells: human liver microsomes
Description: as §1

cytochrome P450 2C9 = target: T4, cytochrome P450 2C9 (Homo sapiens, UniProt P11712); assay: Cytochrome inhibition in human liver microsomes, 2C9; assay type: in vitro ADME; conditions: substrate Tolbutamide, read-out: IC50, 2C9 (PSMA-Abi)
T4 construct: isoenzyme activity in human liver microsomes using conventional sample substrates and HPLC-MS/MS detection; from tissue; host or cells: human liver microsomes
Description: as §1

[2] = mice males, 2000 mg/kg single, M±SD
[3] = single oral administration, mean
[4] = single peroral 1000 mg/kg, Mean ± SD
[5] = oral x14, PSMA-Abi 500, AbiAc 200 mg/kg/day

T1 sequence (P08684 whole entry): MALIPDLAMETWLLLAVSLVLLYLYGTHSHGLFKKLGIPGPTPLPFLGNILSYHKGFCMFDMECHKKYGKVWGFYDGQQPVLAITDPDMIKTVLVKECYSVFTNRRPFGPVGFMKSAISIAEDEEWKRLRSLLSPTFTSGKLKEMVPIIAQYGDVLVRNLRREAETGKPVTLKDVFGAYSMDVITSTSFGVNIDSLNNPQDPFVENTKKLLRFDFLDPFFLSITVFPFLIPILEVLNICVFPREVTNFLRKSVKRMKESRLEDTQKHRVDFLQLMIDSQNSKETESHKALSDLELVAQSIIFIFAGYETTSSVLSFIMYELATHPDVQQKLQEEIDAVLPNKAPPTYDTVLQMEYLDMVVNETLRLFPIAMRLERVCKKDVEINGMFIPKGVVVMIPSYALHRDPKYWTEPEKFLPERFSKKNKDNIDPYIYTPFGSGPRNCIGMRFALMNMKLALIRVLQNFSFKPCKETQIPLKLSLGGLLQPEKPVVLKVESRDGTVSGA
T3 sequence (P33261 whole entry): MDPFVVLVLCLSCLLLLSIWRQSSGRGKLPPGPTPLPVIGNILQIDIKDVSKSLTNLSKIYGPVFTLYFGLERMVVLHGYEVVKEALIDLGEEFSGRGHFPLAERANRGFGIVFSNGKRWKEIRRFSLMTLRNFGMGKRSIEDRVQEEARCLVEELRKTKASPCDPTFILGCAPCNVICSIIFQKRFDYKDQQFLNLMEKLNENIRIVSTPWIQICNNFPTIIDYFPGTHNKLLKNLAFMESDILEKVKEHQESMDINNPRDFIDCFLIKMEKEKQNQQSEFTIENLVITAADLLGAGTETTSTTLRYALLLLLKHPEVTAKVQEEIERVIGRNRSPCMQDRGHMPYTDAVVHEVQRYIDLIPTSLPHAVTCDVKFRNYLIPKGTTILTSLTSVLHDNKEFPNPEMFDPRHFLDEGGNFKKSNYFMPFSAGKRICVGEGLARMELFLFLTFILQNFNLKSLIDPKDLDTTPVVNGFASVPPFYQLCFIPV
T2 sequence (P10635 whole entry): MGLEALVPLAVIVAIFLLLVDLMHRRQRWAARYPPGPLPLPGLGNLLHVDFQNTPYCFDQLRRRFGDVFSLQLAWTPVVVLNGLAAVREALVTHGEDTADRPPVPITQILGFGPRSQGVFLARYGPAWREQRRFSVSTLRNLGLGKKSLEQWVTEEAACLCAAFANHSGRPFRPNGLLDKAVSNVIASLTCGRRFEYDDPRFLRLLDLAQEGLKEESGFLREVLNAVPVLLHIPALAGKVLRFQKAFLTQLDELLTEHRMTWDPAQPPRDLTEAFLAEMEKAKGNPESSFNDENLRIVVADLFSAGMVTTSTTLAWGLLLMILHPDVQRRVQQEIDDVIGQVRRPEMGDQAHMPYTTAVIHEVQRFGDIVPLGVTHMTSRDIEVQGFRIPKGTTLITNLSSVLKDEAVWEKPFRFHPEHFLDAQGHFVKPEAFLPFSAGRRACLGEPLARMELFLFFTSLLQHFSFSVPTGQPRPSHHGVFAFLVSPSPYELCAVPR
T4 sequence (P11712 whole entry): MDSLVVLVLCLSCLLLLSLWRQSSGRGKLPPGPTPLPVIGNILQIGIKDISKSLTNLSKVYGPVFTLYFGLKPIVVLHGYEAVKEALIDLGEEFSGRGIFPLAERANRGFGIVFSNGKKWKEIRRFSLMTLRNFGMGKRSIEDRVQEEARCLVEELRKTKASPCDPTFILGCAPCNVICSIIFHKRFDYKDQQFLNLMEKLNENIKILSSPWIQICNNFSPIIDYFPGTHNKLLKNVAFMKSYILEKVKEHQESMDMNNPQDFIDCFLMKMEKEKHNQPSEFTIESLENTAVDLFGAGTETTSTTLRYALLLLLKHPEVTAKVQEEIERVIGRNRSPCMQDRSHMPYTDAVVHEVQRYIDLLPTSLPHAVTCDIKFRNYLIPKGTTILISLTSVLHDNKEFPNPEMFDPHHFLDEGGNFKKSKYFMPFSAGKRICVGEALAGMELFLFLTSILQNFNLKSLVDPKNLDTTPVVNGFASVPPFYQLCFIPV

**Q.** Which IC50 (cytochrome P450 3A4; substrate Midazolam, read-out: IC50, 3A4-M (PSMA-Abi)) does the source give for `C[C@]12CC[C@H](OC(=O)CCCc3cn(CCCNC(=O)[C@H](Cc4ccc(O)cc4)NC(=O)[C@H](Cc4ccccc4)NC(=O)CCC(=O)NCCCCCC(=O)N(CCCC[C@H](NC(=O)N[C@@H](CCC(=O)O)C(=O)O)C(=O)O)Cc4cccc(Cl)c4)nn3)CC1=CC[C@@H]1[C@@H]2CC[C@]2(C)C(c3cccnc3)=CC[C@@H]12` [PSMA-Abi] here?
**A.** 1.1 ± 0.2 µM

**Q.** What about the IC50 (cytochrome P450 3A4; substrate Testosterone, read-out: IC50, 3A4-T (PSMA-Abi)) of the same molecule?
**A.** 5.7 ± 0.8 µM

**Q.** What about the “weight dynamic, % of starting weight, 5 days” value (Acute toxicity in mice; [2]) of the same molecule?
**A.** 17.5±7.4%

**Q.** What about the “weight dynamic, % of starting weight, 10 days” value (Acute toxicity in mice; [2]) of the same molecule?
**A.** 30.9±11.5%

**Q.** And the “weight dynamic, % of starting weight, 14 days” value (Acute toxicity in mice; [2])?
**A.** 30.7±17.9%

**Q.** What about the “growth rate (body weight), % of initial weight” value (Acute toxicity in mice; mice, 2000 mg/kg single dose, by the 14th day, control 50) of the same molecule?
**A.** 30%

**Q.** What about the animal death (Acute toxicity in mice; mice, 2000 mg/kg single dose, intragastric, 14 days observation, 2000 mg/kg) of the same molecule?
**A.** No animal death was observed; also recorded: without animal death

**Q.** What about the tolerable dose (Acute toxicity in mice; mice, single dose) of the same molecule?
**A.** 2000 mg/kg

**Q.** What about the “maximum plasma concentrations, range over animals” value (Pharmacokinetics in rats; oral 1000 mg/kg) of the same molecule?
**A.** 190 to 537 ng/mL

**Q.** What about the “time plasma concentrations were detected after administration” value (Pharmacokinetics in rats; oral 1000 mg/kg) of the same molecule?
**A.** at least 72 h

**Q.** And the “time to maximum plasma concentration, range over animals” value (Pharmacokinetics in rats; oral 1000 mg/kg)?
**A.** 1.5 to 8 h

**Q.** What about the “AUC0–t” value (Pharmacokinetics in rats; [3]) of the same molecule?
**A.** 3791 ± 875 ng·h/mL

**Q.** What about the “AUC0–∞” value (Pharmacokinetics in rats; [3]) of the same molecule?
**A.** 4623 ± 1260 ng·h/mL

**Q.** And the Cmax (Pharmacokinetics in rats; single peroral 1000 mg/kg, 1% starch suspension, Mean ± SD)?
**A.** 318 ± 190 ng/mL

**Q.** And the “AUC0–t” value (Pharmacokinetics in rats; [4])?
**A.** 3791 ± 875 ng·h/mL

**Q.** And the “AUC0–∞” value (Pharmacokinetics in rats; [4])?
**A.** 4623 ± 1260 ng·h/mL

**Q.** And the “AUCt–∞/AUC0–∞” value (Pharmacokinetics in rats; [4])?
**A.** 21 ± 5%

**Q.** And the Kel (Pharmacokinetics in rats; [4])?
**A.** 0.023 ± 0.006 h⁻¹

**Q.** What about the “MRT0–t” value (Pharmacokinetics in rats; [4]) of the same molecule?
**A.** 27.2 ± 1.7 h

**Q.** And the “T1/2 (elimination half-life)” value (Pharmacokinetics in rats; [4])?
**A.** 31.3 ± 8.7 h

**Q.** What about the Tmax (Pharmacokinetics in rats; single peroral 1000 mg/kg, mean) of the same molecule?
**A.** 3.8 h

**Q.** What about the “effect on cell cycle” value (22Rv1 cells; 22Rv1, against a control group) of the same molecule?
**A.** not statistically significant against a control group

**Q.** What about the “level of G0/G1 cells” value (22Rv1 cells; 22Rv1, with increasing concentration) of the same molecule?
**A.** practically unchanged

**Q.** What about the IC50 (cytochrome P450 2D6) of the same molecule?
**A.** 17 ± 1 µM

**Q.** And the “TGImax (tumor growth inhibition)” value ([1]; oral x14, PSMA-Abi 500 mg/kg/day, AbiAc 200 mg/kg/day, after the end of treatment)?
**A.** 65%

**Q.** And the “TGI, day 15 after start of the treatment” value [1, 5]?
**A.** 65%

**Q.** What about the “TGI, day 18 after start of the treatment” value [1, 5] of the same molecule?
**A.** 63%

**Q.** And the “TGI, day 22 after start of the treatment” value [1, 5]?
**A.** 60%

**Q.** And the “Tumor volume (M+SE), day 15” value [1, 5]?
**A.** 876±197 mm3

**Q.** What about the “Tumor volume (M+SE), day 18” value [1, 5] of the same molecule?
**A.** 1063±195 mm3

**Q.** What about the “Tumor volume (M+SE), day 22” value [1, 5] of the same molecule?
**A.** 1294±201 mm3

**Q.** What about the “Tumor volume (M+SE), day 0” value ([1]; start of treatment) of the same molecule?
**A.** 110±18 mm3

**Q.** And the IC50 (cytochrome P450 2C19)?
**A.** > 25 µM

**Q.** And the IC50 (cytochrome P450 2C9)?
**A.** > 25 µM
